From paper PMC11045757, “Group 3 medulloblastoma transcriptional networks collapse under domain specific EP300/CBP inhibition” (Nature Communications, 2024)

Key:
TAF1L(2) = molecular target: T1, TAF1L(2) (Homo sapiens, UniProt Q8IZX4); assay: BromoScan profiling (DiscoverX); type: binding; conditions: read-out: Percent Control TAF1L(2)
T1 construct: TAF1L(2); purchased Eurofins DiscoverX (BROMOscan)

EP300 = molecular target: T2, EP300 (Homo sapiens, UniProt Q09472); assay: BromoScan profiling (DiscoverX); type: binding; conditions: read-out: Percent Control EP300
T2 construct: purchased Eurofins DiscoverX (BROMOscan)

BRDT(1) = molecular target: T3, BRDT(1) (Homo sapiens, UniProt Q58F21); assay: BromoScan profiling (DiscoverX); type: binding; conditions: read-out: Percent Control BRDT(1)
T3 construct: BRDT(1); purchased Eurofins DiscoverX (BROMOscan)

[1] = Brain tissue concentration after i.p. dosing (LC-MS/MS); type: in vivo, female CD-1 nude mice; conditions: below lower limit of quantitation
Protocol: One of the most aggressive MB tumor subtypes are Group 3 medulloblastoma (G3MB), which are commonly characterized by overexpression of the driver oncogene c-MYC due to gene amplification in 17% of cases[40],[42],[43]. These tumors are associated with poor patient survival. […] We sacrificed treated mice at three timepoints after dosing (8, 16, 24 h) and perfused the murine vasculature with PBS to eliminate contaminating blood from the brain.
All animal studies were approved by the St. Jude Children’s Research Hospital Animal Care and Use Committee and performed in accordance with best practices outlined by the NIH Office of Laboratory Animal Welfare. […]
Brain samples were homogenized using a FastPrep-24 system (MP Biomedicals, Santa Ana, CA), and stored at -80 °C until analysis by qualified liquid chromatography–tandem mass spectrometry (LC-MS/MS) assay. […] Plasma and brain homogenate samples were precipitated, and extracted supernatant was analyzed on an AB Sciex ExionLC high performance liquid chromatography system via an AB Sciex ExionLC autosampler. For quantitation, a linear model (1/X^2 weighting) fit the plasma and brian homogenate calibrators across the 1 to 500 ng/mL range, with a correlation coefficient (R) of ≥0.9967. […] No matrix effects, ion enhancement or suppression, were detected in blank CD-1 mouse plasma or NSG brain homogenates.

BRD4-BD1 (BRD4-1) = molecular target: T4, BRD4-BD1 (BRD4-1) (Homo sapiens, UniProt O60885); assay: Isothermal titration calorimetry (ITC); type: binding; conditions: single ITC experiment, data fit ± SEM
T4 construct: BRD4-BD1 (residues 44-168); 6xHis (cleaved yes); host or cells: E. coli BL21 (DE3) RIL
Protocol: At OD600 of 0.6, the culture was cooled down to 18 °C and induced with 0.1 mM IPTG. After 18 h growth, the culture was harvested by centrifugation at 6000 × g for 25 min and stored at -80 °C. Harvested cell pellets were re-suspended in 50 mM Na/K phosphate buffer (pH 7.4) containing 100 mM NaCl, 40 mM imidazole, 0.01% w/v lysozyme and 0.01% v/v Triton X-100 at 4 °C for 1 h, subjected to sonication and the lysate was clarified by centrifugation (30,000 × g for 45 min at 4 °C). Proteins were purified by FPLC at 4 °C using columns and chromatography materials from GE Healthcare. […] Proteins were purified to homogeneity by size exclusion chromatography using Superdex 75 equilibrated with elution buffer (50 mM HEPES pH 7.5, 100 mM NaCl, 2 mM DTT). All BRDs eluted as monomeric protein and were of crystallization grade quality (>95% purity as judged by SDS-PAGE). Pool fractions were combined, concentrated to 10–12 mg/ml, and aliquots were flash-frozen in liquid N2 and stored at −80 °C.
All experiments were conducted using an PEAQ-ITC calorimeter (Malvern Scientific). BRDs were buffer exchanged using PD10 columns (GE life sciences) into 50 mM HEPES pH7.5 and 100 mM NaCl (ITC buffer) before the experiment and concentrated to ∼10 mg/mL. Experiments were carried out in ITC buffer while stirring at 750 rpm through reverse titration. The microsyringe (40 μL load volume) was loaded with the protein sample (250–600 μM protein in ITC buffer) and inserted into the calorimetric cell (0.2 mL cell volume) consisting of compound (20–60 μM in ITC buffer). All titrations were conducted using an initial control injection of 0.2 μL followed by 13 identical injections (~3 μL per injection) with a duration of 2 s (per injection) and a spacing of 150 s between injections. The ratio of protein/compound was optimized to ensure complete saturation of the titrant before the final injection to ensure proper baseline determination. Data were corrected for dilution and analyzed using the MicroCal Origin software to determine the enthalpies of binding (ΔH) and binding constants as described. Thermodynamic parameters were calculated using the basic equation of thermodynamics (ΔG = ΔH − TΔS = −RTlnKB) where ΔG, ΔH and ΔS are the changes in free energy, enthalpy and entropy of binding, respectively. A single binding site model was used for all ligand-protein interactions.

ATAD2A = molecular target: T5, ATAD2A (Homo sapiens, UniProt Q6PL18); assay: BromoScan profiling (DiscoverX); type: binding; conditions: read-out: Percent Control ATAD2A
T5 construct: purchased Eurofins DiscoverX (BROMOscan)

BRD4(1) = molecular target: T6, BRD4(1) (Homo sapiens, UniProt O60885); assay: BromoScan profiling (DiscoverX); type: binding; conditions: read-out: Percent Control BRD4(1)
T6 construct: BRD4(1); purchased Eurofins DiscoverX (BROMOscan)

BRPF3 = molecular target: T7, BRPF3 (Homo sapiens, UniProt Q9ULD4); assay: BromoScan profiling (DiscoverX); type: binding; conditions: read-out: Percent Control BRPF3
T7 construct: purchased Eurofins DiscoverX (BROMOscan)

BAZ2B = molecular target: T8, BAZ2B (Homo sapiens, UniProt Q9UIF8); assay: BromoScan profiling (DiscoverX); type: binding; conditions: read-out: Percent Control BAZ2B
T8 construct: purchased Eurofins DiscoverX (BROMOscan)

BRPF1 = molecular target: T9, BRPF1 (Homo sapiens, UniProt P55201); assay: BromoScan profiling (DiscoverX); type: binding; conditions: read-out: Percent Control BRPF1
T9 construct: purchased Eurofins DiscoverX (BROMOscan)

BRD2(2) = molecular target: T10, BRD2(2) (Homo sapiens, UniProt P25440); assay: BromoScan profiling (DiscoverX); type: binding; conditions: read-out: Percent Control BRD2(2)
T10 construct: BRD2(2); purchased Eurofins DiscoverX (BROMOscan)

FALZ = molecular target: T11, FALZ (Homo sapiens, UniProt Q12830); assay: BromoScan profiling (DiscoverX); type: binding; conditions: read-out: Percent Control FALZ
T11 construct: purchased Eurofins DiscoverX (BROMOscan)

T5 sequence (Q6PL18 whole entry): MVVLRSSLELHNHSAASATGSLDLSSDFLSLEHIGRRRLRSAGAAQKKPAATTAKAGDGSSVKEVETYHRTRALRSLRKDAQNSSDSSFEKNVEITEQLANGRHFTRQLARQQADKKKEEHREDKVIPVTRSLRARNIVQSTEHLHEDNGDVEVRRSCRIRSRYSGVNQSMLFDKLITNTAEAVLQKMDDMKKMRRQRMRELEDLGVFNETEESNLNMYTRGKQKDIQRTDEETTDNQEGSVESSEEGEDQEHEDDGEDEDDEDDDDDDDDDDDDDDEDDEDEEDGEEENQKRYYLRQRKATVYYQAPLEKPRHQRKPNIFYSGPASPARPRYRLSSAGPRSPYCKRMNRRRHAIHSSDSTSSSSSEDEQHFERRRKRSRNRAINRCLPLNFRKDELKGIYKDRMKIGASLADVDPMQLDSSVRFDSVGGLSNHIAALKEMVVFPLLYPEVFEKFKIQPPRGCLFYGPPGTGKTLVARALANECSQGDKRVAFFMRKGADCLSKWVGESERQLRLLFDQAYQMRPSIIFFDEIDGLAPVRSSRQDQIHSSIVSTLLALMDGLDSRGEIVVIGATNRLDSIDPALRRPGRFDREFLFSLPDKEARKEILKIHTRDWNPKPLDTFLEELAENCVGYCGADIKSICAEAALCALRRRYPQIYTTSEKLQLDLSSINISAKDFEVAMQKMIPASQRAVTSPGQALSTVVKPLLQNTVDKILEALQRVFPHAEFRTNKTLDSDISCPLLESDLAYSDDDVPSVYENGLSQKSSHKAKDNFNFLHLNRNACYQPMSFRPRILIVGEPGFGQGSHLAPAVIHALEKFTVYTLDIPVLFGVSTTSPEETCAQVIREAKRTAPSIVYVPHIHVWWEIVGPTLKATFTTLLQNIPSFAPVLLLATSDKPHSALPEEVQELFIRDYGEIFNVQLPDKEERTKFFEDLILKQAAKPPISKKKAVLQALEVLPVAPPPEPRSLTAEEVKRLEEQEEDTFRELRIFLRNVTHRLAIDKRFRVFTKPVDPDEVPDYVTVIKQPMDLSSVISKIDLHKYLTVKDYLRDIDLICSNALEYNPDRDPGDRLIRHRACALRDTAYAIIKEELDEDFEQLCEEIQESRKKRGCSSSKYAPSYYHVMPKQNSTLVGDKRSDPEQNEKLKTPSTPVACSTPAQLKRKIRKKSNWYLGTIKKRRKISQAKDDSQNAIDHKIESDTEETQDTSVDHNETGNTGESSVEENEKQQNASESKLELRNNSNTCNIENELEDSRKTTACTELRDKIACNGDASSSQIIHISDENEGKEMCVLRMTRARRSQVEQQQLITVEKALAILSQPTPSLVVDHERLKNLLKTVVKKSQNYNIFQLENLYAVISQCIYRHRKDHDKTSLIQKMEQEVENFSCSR
T8 sequence (Q9UIF8 whole entry): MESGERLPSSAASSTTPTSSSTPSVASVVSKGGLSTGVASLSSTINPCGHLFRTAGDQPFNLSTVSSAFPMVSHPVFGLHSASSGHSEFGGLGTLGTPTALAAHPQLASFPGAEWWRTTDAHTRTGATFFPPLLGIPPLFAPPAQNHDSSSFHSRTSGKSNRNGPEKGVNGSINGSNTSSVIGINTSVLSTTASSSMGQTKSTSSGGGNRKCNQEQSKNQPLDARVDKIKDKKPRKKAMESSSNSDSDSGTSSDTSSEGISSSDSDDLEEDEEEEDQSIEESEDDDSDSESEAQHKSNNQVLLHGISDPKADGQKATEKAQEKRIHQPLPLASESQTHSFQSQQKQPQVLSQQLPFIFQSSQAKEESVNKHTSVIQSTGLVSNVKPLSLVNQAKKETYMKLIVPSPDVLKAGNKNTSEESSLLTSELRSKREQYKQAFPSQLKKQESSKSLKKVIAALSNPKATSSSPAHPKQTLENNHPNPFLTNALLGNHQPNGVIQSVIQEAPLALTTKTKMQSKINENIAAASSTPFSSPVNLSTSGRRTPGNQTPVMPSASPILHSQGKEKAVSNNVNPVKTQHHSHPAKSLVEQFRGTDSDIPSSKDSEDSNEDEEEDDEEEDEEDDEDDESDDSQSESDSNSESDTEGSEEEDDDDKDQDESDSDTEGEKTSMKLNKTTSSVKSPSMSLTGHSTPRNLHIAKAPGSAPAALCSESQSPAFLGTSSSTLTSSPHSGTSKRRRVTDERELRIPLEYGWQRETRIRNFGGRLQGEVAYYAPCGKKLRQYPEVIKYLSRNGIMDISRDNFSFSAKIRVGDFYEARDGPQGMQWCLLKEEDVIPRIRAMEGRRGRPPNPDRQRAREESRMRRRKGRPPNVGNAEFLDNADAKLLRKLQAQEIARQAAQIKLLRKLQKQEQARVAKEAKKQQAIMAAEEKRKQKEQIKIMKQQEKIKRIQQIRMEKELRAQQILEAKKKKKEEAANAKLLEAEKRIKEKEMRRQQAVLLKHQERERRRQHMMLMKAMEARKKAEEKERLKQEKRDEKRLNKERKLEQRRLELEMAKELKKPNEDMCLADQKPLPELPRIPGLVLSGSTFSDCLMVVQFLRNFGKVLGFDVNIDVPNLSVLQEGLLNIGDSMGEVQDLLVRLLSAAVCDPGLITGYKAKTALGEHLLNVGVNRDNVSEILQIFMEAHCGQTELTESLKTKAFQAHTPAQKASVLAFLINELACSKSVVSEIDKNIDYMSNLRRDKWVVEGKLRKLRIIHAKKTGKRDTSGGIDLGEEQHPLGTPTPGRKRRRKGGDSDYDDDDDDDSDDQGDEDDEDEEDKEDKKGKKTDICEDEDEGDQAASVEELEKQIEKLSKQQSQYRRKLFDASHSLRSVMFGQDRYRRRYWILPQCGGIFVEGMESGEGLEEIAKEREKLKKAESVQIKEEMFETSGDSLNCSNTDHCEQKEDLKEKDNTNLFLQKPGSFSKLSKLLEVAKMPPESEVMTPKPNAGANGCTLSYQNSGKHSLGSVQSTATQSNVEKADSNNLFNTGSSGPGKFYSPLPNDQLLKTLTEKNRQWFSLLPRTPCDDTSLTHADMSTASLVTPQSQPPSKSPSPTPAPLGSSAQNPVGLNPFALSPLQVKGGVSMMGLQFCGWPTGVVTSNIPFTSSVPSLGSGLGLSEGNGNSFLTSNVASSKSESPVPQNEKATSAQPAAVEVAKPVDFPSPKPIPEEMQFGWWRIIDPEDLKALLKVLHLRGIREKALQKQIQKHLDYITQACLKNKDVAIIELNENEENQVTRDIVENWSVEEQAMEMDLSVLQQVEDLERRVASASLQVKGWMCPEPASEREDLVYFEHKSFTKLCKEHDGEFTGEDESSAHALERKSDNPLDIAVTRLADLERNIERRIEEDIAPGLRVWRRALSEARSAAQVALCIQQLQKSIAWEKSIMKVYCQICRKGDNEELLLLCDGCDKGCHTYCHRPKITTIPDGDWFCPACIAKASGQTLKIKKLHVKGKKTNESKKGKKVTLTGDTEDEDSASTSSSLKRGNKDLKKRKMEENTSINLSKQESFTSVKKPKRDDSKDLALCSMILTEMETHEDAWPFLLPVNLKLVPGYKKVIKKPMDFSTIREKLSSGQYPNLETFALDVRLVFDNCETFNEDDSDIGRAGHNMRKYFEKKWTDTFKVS
T9 sequence (P55201 whole entry): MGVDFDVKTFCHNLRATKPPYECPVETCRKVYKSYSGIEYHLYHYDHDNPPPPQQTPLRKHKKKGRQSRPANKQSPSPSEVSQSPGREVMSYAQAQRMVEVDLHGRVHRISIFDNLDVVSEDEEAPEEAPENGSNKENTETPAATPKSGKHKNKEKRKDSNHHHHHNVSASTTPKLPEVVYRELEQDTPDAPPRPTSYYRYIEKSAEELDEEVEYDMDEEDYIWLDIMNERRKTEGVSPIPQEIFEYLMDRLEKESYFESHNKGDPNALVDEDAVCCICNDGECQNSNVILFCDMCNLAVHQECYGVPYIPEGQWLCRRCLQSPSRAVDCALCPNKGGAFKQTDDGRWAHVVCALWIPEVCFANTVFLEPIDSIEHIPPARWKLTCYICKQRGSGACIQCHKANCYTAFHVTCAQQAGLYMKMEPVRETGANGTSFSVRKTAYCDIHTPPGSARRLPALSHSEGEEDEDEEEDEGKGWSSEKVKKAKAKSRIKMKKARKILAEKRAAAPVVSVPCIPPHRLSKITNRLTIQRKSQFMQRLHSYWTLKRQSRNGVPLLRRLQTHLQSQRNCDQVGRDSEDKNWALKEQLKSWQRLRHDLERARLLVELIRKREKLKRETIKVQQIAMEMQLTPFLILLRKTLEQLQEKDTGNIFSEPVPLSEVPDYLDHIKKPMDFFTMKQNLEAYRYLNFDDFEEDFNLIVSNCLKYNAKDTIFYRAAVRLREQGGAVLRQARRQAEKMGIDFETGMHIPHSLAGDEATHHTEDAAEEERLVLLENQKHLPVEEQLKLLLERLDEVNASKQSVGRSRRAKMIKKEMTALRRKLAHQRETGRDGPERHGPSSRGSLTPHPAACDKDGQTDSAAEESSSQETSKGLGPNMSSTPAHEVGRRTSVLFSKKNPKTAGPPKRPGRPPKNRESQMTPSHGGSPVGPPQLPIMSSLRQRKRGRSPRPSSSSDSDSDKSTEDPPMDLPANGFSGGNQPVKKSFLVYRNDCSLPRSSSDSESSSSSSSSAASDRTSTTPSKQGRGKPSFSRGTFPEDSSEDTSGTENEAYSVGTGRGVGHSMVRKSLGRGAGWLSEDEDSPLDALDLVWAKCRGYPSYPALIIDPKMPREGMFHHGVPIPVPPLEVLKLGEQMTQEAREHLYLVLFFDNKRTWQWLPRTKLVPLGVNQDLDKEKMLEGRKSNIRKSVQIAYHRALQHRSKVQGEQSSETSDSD
T1 sequence (Q8IZX4 1517-1654 limits assumed): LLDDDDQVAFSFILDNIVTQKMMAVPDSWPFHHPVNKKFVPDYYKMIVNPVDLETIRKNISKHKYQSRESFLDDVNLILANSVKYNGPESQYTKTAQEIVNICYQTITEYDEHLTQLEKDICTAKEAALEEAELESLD
T10 sequence (P25440 348-455 limits assumed): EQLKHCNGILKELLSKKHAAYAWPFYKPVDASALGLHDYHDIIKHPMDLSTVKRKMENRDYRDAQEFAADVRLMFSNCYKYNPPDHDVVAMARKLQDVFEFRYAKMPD

CO[C@H]1CC[C@H](n2c([C@@H]3CCCC(=O)N3c3ccc(F)c(F)c3)nc3cc(-c4c(C)noc4C)ccc32)CC1 [CCS1477]
remaining binding at 1 µM (TAF1L(2)): 80%
remaining binding at 1 µM (EP300): 1.6%
remaining binding at 1 µM (BRDT(1)): 14%
brain tissue concentration ([1]; 25 or 50 mg/kg i.p., 8, 16, 24 h): < 6 ng/mL
brain concentration ([1]; i.p., 16 and 24 hrs): < 6 ng/mL
Kd (BRD4-BD1 (BRD4-1)): 403 ± 137 nM
remaining binding at 1 µM (ATAD2A): 100%
remaining binding at 1 µM (BRD4(1)): 3.3%
remaining binding at 1 µM (BRPF3): 75%
remaining binding at 1 µM (BAZ2B): 82%
remaining binding at 1 µM (BRPF1): 31%
remaining binding at 1 µM (BRD2(2)): 57%
remaining binding at 1 µM (FALZ): 63%
